According to patent publication US10829520B2, “Beta-hairpin peptidomimetics” (POLYPHOR AG, priority 2015, dated 2020):
Where a SMILES comes first, the peptide text is derived from it. Bridges are numbered along the chain shown (N, C = ends). [ ]: non-standard residue; d: D form. aThr = C[C@H](O)[C@H](N)C(=O)O; Tle = CC(C)(C)[C@H](N)C(=O)O; Nle = CCCC[C@H](N)C(=O)O; Dab = NCC[C@H](N)C(=O)O; Dap = NC[C@H](N)C(=O)O

Legend:
Assay type in all cases: cell-based
[1] = system: human red blood cells (hRBC); assay: Hemolysis of human red blood cells; conditions: red cells of human, 1 h, 100 μg/mL
Outline: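 Percent lysis of washed human erythrocytes after 1 h at 37° C. with 100 μg/mL peptide, calculated from OD540 of 8-fold diluted supernatant as a fraction of the 2.5% Triton X-100 value.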

[2] = system: Pseudomonas aeruginosa ATCC 27853; conditions: ATCC 27853
Outline: (§1)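 Broth microdilution per CLSI, cation-adjusted MH-II medium, 0.002% (v/v) polysorbate 80 final. Approx. 10^6 CFU/mL inoculum, incubated 35° C for 18-20 h; MIC read as absence of visible growth.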

[3] = system: Escherichia coli ATCC 25922; conditions: ATCC 25922
Outline: as §1

[4] = system: Klebsiella pneumoniae 968733; conditions: 968733
Escherichia coli 926415 = conditions: 926415
[5] = system: Klebsiella pneumoniae SSI #3010; conditions: SSI #3010
Outline: as §1

[6] = system: Acinetobacter baumannii 872842; conditions: 872842
[7] = system: Acinetobacter baumannii DSM 30008; conditions: DSM 30008
Outline: as §1

Row | Compound | Hemolysis at 100 μg/mL [1] [%] | Pseudomonas aeruginosa ATCC 27853 MIC [2] [µg/mL] | Escherichia coli ATCC 25922 MIC [3] [µg/mL] | Klebsiella pneumoniae 968733 MIC [4] [µg/mL] | Escherichia coli 926415 MIC (Escherichia coli 926415) [µg/mL] | Klebsiella pneumoniae SSI #3010 MIC [5] [µg/mL] | Acinetobacter baumannii 872842 MIC [6] [µg/mL] | Acinetobacter baumannii DSM 30008 MIC [7] [µg/mL]
1 | CCCC[C@@H]1NC(=O)[C@@H]2CCCN2C(=O)[C@H]2CCCN2C(=O)[C@H](CO)NC(=O)[C@H](C)NC(=O)[C@H](C(C)(C)C)NC(=O)[C@@H](NC(=O)[C@H](Cc2c[nH]c3ccccc23)NC(C)=O)CSSC[C@@H](C(=O)N[C@@H](CCN)C(=O)N[C@H](C(=O)N[C@@H](CN)C(=O)N[C@H]2CCNC(=O)[C@H]([C@@H](C)O)NC(=O)[C@H](CCN)NC(=O)[C@H](CCN)NC(=O)[C@H](CC(C)C)NC(=O)[C@@H](Cc3ccccc3)NC(=O)[C@H](CCN)NC2=O)[C@@H](C)O)NC(=O)[C@H](Cc2ccc(O)cc2)NC(=O)[C@H](CO)NC1=O [Ex. 20] (Ac-WC[Tle]AS[dP]P[Nle]SYC[Dab]T[Dap][Dab][Dab][dF]L[Dab][Dab]T; disulfide 2-11; lactam 15-C) | 1 | 0.25 | 0.125 | 1 | 0.25 | 0.25 | 0.5 | 0.5
2 | CCCC[C@@H]1NC(=O)[C@@H]2CCCN2C(=O)[C@H]2CCCN2C(=O)[C@H](CO)NC(=O)[C@H](C)NC(=O)[C@H](C(C)(C)C)NC(=O)[C@@H](NC(=O)[C@H](Cc2c[nH]c3ccccc23)NC(C)=O)CSSC[C@@H](C(=O)N[C@@H](CCN)C(=O)N[C@H](C(=O)N[C@@H](CCN)C(=O)N[C@H]2CCNC(=O)[C@H]([C@@H](C)O)NC(=O)[C@H](CCN)NC(=O)[C@H](CCN)NC(=O)[C@H](CC(C)C)NC(=O)[C@@H](Cc3ccccc3)NC(=O)[C@H](CCN)NC2=O)[C@H](C)O)NC(=O)[C@H](Cc2ccc(O)cc2)NC(=O)[C@H](CO)NC1=O [Ex. 21] (Ac-WC[Tle]AS[dP]P[Nle]SYC[Dab][aThr][Dab][Dab][Dab][dF]L[Dab][Dab]T; disulfide 2-11; lactam 15-C) | <1 | 0.5 | 0.25 | 2 | 1 | 0.25 | 1 | 0.25
3 | CCCC[C@@H]1NC(=O)[C@@H]2CCCN2C(=O)[C@H]2CCCN2C(=O)[C@H](CO)NC(=O)[C@H](C)NC(=O)[C@H](C(C)(C)C)NC(=O)[C@@H](NC(=O)[C@H](Cc2c[nH]c3ccccc23)NC(C)=O)CSSC[C@@H](C(=O)N[C@@H](CCN)C(=O)NCC(=O)N[C@@H](CCN)C(=O)N[C@H]2CCNC(=O)[C@H]([C@@H](C)O)NC(=O)[C@H](CCN)NC(=O)[C@H](CCN)NC(=O)[C@H](CC(C)C)NC(=O)[C@@H](Cc3ccccc3)NC(=O)[C@H](CCN)NC2=O)NC(=O)[C@H](Cc2ccc(O)cc2)NC(=O)[C@H](CO)NC1=O [Ex. 22] (Ac-WC[Tle]AS[dP]P[Nle]SYC[Dab]G[Dab][Dab][Dab][dF]L[Dab][Dab]T; disulfide 2-11; lactam 15-C) | <1 | 0.25 | 0.125 | 1 | 0.5 | 0.25 | 0.125 | 0.5
